Our source for the inhibition values is ChEMBL document CHEMBL3627608, “Crystal structures of human RIP2 kinase catalytic domain complexed with ATP-competitive inhibitors: Foundations for understanding inhibitor selectivity” (Bioorg Med Chem, 2015).

Assay [1] concerns the target Tyrosine-protein kinase Lyn (Homo sapiens) (UniProt P07948). The experiment in a line: Inhibition of LYN (unknown origin) at 10 uM after 120 mins P33 radiolabeled kinase activity assay.
Assay [2] has as its target T1, Serine/threonine-protein kinase LATS2 (Homo sapiens) (UniProt Q9NRM7).
T1 sequence (whole entry): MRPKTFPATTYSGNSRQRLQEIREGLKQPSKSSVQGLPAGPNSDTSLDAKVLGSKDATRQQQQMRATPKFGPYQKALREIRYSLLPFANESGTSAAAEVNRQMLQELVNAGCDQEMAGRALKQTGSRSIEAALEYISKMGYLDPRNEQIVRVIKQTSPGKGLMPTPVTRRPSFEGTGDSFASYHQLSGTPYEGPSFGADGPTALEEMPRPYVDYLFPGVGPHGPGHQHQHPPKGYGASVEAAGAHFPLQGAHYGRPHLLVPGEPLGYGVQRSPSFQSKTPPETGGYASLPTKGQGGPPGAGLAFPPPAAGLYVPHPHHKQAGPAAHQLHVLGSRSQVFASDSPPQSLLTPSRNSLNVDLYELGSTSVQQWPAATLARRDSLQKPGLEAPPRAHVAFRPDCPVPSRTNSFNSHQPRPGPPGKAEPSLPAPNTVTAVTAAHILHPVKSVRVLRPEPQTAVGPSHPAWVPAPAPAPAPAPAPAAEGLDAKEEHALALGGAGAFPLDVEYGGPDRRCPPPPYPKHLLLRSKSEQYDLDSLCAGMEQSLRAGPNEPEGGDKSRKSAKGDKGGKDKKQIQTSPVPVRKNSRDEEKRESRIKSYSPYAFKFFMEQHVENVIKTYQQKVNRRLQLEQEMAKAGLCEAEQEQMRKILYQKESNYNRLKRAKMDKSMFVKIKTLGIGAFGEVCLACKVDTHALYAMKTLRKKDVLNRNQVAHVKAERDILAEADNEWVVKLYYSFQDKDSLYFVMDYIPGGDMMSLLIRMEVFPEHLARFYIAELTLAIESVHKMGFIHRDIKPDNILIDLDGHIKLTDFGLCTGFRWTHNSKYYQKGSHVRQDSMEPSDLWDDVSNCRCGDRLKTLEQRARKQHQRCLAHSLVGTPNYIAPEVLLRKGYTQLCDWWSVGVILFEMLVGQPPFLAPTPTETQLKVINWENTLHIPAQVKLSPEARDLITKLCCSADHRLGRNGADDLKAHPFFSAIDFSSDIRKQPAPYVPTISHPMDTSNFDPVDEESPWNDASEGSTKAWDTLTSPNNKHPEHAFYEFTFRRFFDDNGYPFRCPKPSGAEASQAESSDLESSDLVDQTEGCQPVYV
The experiment in a line: Inhibition of LATS2 (unknown origin) at 10 uM after 120 mins P33 radiolabeled kinase activity assay.

The target of assay [3] is RAF proto-oncogene serine/threonine-protein kinase (Homo sapiens) (UniProt P04049). Put plainly: Inhibition of RAF1 (unknown origin) at 10 uM after 120 mins P33 radiolabeled kinase activity assay.
Sequence of RAF proto-oncogene serine/threonine-protein kinase (Homo sapiens) (P04049 whole entry): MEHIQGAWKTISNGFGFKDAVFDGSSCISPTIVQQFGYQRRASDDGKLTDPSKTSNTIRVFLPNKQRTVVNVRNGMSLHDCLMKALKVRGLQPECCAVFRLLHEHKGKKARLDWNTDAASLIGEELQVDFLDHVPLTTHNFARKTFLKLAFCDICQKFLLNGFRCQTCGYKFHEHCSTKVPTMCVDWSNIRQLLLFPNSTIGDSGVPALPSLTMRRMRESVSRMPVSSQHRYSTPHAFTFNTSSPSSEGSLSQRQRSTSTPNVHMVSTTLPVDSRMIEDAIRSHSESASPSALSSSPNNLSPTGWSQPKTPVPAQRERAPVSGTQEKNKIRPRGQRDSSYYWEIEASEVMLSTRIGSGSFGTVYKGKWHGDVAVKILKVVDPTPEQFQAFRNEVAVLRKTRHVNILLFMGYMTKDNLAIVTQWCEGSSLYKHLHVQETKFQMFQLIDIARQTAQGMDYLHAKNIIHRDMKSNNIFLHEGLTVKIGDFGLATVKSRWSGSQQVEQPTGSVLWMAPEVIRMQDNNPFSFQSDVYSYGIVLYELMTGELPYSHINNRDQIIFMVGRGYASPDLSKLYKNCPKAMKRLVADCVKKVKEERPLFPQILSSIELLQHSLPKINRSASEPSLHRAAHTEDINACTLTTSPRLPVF
The target of assay [4] is Macrophage-stimulating protein receptor (Homo sapiens) (UniProt Q04912). The experiment in a line: Inhibition of RON (unknown origin) at 10 uM after 120 mins P33 radiolabeled kinase activity assay.
Sequence of Macrophage-stimulating protein receptor (Homo sapiens) (Q04912 25-304 limits assumed): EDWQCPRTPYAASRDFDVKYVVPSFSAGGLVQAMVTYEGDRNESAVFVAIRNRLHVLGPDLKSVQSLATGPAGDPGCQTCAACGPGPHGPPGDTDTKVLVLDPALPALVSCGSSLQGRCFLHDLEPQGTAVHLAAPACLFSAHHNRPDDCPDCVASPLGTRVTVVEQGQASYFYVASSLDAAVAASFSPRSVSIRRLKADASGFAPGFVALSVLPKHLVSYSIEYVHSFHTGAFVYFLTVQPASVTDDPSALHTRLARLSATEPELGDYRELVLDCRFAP
Sequence of Macrophage-stimulating protein receptor (Homo sapiens) (Q04912 310-1400 limits assumed): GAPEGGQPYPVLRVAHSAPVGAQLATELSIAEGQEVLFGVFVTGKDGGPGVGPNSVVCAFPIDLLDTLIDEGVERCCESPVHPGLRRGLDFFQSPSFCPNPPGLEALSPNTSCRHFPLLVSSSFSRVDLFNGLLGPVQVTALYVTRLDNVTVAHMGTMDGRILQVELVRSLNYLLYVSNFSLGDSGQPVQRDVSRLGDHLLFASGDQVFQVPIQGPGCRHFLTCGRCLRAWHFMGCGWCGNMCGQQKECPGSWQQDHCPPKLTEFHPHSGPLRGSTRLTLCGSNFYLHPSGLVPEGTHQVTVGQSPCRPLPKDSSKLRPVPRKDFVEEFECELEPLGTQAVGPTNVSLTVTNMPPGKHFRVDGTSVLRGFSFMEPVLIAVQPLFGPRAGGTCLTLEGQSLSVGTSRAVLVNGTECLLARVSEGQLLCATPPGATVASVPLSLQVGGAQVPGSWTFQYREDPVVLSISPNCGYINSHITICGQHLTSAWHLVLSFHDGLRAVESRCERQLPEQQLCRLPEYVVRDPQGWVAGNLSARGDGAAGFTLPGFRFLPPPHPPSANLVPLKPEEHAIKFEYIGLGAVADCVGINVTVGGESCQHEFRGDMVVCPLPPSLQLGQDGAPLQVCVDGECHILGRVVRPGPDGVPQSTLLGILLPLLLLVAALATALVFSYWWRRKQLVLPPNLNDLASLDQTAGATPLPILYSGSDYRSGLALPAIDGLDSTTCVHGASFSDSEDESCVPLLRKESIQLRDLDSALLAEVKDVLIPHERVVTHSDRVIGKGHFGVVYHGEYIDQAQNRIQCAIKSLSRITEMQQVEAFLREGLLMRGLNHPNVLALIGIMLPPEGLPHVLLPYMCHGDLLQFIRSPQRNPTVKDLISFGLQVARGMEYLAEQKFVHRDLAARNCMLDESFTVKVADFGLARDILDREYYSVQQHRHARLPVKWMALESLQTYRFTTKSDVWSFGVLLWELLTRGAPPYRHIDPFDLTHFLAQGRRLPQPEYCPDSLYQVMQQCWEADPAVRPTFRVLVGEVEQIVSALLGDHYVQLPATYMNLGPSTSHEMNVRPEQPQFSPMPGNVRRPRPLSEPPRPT
For assay [5], the target named is Vascular endothelial growth factor receptor 2 (Homo sapiens) (UniProt P35968). Put plainly: Inhibition of KDR (unknown origin) at 10 uM after 120 mins P33 radiolabeled kinase activity assay.
For a further assay, the species on record is Homo sapiens. The experiment in a line: Inhibition of PKCbeta1 (unknown origin) at 10 uM after 120 mins P33 radiolabeled kinase activity assay.
Assay [6] addresses Serine/threonine-protein kinase MRCK gamma (Homo sapiens) (UniProt Q6DT37). The experiment in a line: Inhibition of DMPK2 (unknown origin) at 10 uM after 120 mins P33 radiolabeled kinase activity assay.
The target of assay [7] is Serine/threonine-protein kinase pim-3 (Homo sapiens) (UniProt Q86V86). Put plainly: Inhibition of PIM3 (unknown origin) at 10 uM after 120 mins P33 radiolabeled kinase activity assay.
Assay [8] concerns the target Protein kinase C alpha type (Homo sapiens) (UniProt P17252). The experiment in a line: Inhibition of PKCalpha (unknown origin) at 10 uM after 120 mins P33 radiolabeled kinase activity assay.
Assay [9] has as its target T2, Non-receptor tyrosine-protein kinase TNK1 (Homo sapiens) (UniProt Q13470).
T2 sequence (whole entry): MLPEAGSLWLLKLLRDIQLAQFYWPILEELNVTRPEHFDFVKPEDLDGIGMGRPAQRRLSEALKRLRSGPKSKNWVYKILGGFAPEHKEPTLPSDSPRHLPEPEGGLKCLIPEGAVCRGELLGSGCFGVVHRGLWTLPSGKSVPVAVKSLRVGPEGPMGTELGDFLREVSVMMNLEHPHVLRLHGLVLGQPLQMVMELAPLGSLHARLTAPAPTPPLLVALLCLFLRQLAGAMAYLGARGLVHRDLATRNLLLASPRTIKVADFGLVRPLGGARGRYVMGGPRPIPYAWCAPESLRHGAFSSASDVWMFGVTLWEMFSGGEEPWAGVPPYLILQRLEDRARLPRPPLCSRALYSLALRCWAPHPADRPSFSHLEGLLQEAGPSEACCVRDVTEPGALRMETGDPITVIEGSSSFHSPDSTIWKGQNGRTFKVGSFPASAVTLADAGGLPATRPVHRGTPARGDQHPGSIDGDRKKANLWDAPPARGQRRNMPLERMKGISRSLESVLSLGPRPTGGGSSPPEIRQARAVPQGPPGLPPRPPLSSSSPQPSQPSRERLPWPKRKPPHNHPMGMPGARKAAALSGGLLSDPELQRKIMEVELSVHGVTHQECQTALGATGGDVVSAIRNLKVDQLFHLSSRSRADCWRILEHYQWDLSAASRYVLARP
Put plainly: Inhibition of TNK1 (unknown origin) at 10 uM after 120 mins P33 radiolabeled kinase activity assay.

Assay [10] deals with Cell division cycle 7-related protein kinase (Homo sapiens) (UniProt O00311). The experiment in a line: Inhibition of CDC7 (unknown origin) at 10 uM after 120 mins P33 radiolabeled kinase activity assay.
Sequence of Cell division cycle 7-related protein kinase (Homo sapiens) (O00311 whole entry, looked up): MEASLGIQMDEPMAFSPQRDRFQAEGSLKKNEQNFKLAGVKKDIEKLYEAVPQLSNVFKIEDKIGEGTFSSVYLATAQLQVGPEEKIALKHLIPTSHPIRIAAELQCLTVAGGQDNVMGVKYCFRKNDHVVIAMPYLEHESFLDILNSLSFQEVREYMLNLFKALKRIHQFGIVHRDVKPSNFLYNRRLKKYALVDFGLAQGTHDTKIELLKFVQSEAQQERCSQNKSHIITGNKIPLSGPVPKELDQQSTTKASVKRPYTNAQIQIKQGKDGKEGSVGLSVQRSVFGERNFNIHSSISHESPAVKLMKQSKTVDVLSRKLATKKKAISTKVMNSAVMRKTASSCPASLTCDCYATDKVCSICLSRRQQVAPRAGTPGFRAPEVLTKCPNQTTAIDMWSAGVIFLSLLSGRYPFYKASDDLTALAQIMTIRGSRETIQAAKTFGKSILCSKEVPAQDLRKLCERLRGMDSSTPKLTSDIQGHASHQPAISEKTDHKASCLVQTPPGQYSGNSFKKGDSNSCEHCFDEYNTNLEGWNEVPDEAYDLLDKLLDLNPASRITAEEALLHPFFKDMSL
Assay [11] concerns the target Dual specificity protein kinase CLK4 (Homo sapiens) (UniProt Q9HAZ1). Put plainly: Inhibition of CLK4 (unknown origin) at 10 uM after 120 mins P33 radiolabeled kinase activity assay.
Assay [12] concerns the target Ribosomal protein S6 kinase alpha-1 (Homo sapiens) (UniProt Q15418). Put plainly: Inhibition of RSK1 (unknown origin) at 10 uM after 120 mins P33 radiolabeled kinase activity assay.
Assay [13] addresses Macrophage colony-stimulating factor 1 receptor (Homo sapiens) (UniProt P07333). The experiment in a line: Inhibition of FMS (unknown origin) at 10 uM after 120 mins P33 radiolabeled kinase activity assay.
For assay [14], the target named is Calcium/calmodulin-dependent protein kinase type II subunit beta (Homo sapiens) (UniProt Q13554). The experiment in a line: Inhibition of CAMK2beta (unknown origin) at 10 uM after 120 mins P33 radiolabeled kinase activity assay.
Assay [15] deals with Glycogen synthase kinase-3 alpha (Homo sapiens) (UniProt P49840). The experiment in a line: Inhibition of GSK3alpha (unknown origin) at 10 uM after 120 mins P33 radiolabeled kinase activity assay.

Sequence of Macrophage colony-stimulating factor 1 receptor (Homo sapiens) (P07333 whole entry): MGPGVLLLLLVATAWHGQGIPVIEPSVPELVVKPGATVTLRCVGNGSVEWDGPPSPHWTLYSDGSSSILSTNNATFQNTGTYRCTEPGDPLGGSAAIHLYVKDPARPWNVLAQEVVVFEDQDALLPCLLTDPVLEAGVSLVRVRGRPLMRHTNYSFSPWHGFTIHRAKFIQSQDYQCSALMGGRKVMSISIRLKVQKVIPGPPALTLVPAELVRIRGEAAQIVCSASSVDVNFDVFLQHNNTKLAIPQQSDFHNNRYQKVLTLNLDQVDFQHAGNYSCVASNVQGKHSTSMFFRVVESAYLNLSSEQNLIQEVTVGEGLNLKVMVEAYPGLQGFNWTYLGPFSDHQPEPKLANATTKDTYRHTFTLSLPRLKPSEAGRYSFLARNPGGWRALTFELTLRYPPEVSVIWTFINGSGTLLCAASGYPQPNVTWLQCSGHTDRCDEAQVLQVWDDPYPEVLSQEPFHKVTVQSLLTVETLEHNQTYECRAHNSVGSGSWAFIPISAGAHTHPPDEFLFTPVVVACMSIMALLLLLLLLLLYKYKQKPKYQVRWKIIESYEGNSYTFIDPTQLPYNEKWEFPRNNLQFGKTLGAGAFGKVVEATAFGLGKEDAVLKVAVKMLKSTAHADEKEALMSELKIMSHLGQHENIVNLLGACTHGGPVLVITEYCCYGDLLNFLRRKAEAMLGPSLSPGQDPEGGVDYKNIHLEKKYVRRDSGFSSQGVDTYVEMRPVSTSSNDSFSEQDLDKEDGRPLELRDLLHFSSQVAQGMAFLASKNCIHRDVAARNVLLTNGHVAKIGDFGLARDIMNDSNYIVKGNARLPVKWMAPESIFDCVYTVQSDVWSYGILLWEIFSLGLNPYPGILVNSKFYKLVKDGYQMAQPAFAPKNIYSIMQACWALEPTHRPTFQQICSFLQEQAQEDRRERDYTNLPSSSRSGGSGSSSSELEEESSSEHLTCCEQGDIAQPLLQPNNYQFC
Sequence of Dual specificity protein kinase CLK4 (Homo sapiens) (Q9HAZ1 whole entry, looked up): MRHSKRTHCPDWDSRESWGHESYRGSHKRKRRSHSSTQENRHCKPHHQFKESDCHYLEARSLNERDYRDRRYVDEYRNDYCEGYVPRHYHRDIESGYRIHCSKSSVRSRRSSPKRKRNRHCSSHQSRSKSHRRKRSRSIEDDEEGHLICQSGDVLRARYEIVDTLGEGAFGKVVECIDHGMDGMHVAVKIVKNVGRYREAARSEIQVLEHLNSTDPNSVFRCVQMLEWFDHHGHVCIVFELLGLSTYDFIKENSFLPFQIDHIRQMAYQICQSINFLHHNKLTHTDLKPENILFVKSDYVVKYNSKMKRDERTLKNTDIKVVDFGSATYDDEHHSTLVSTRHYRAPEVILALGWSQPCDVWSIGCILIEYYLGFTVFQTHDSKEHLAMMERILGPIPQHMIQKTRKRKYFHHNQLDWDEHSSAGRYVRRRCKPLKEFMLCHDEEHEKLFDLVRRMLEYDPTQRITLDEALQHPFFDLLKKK

As to `COCCNC(=O)c1ccc2c(c1)nc(-c1cnc(-c3ccc(Cl)cc3)[nH]1)n2CCOC`, the inhibition in assay [1] stood at 61.6%; in assay [2] it was 2.32%; in assay [3] it was 41.5%; in assay [4], 1.69%; in assay [5], 7.13%; in the assay listed under Homo sapiens, 3%. The inhibition in [6] was -3.48%; in assay [7], 3.38%; in [8] it was -4.59%; in [9], 22.5%; in [10] it was 6.05%; in [11], 41.3%. Further, the inhibition in assay [12] worked out at 11.6%; in assay [13], 5.32%; in assay [14] it was 7.54%; in [15], 5.43%.

Regarding `CC(C)(C)c1cc(NC(=O)Nc2ccc(Oc3ccncc3)cc2)no1`, the inhibition in [1] was 98.2%; in assay [2], 50.2%; in assay [3] it was 98.8%; in assay [4], 70.6%; in assay [5], 98.6%; in the assay listed under Homo sapiens, -4.39%. Moreover, the inhibition is -1.44% in assay [6]; 69.2% in [7]; -7.51% in assay [8]; 89% in assay [9]; 5.38% in assay [10]; 36.5% in [11]. Moreover, the inhibition in assay [12] is 52%; in [13], 98.2%; in assay [14] it was 13.5%; in [15] it was 37.8%.

As to `CS(=O)(=O)c1cccc(Nc2nccc(-c3sc(N4CCOCC4)nc3-c3cccc(NS(=O)(=O)c4c(F)cccc4F)c3)n2)c1`, the inhibition in assay [1] was 100%; in assay [2], 21.9%; in [3], 100%; in assay [4] it was 18.7%; in assay [5], 96.3%; in the assay listed under Homo sapiens, -3.18%. The inhibition is -3.32% in assay [6]; 17.3% in [7]; -5.32% in assay [8]; 95.2% in assay [9]; 9.73% in [10]; 36.7% in assay [11]. Also, the inhibition in [12] was 73%; in [13], 43.9%; in [14], 8.74%; in assay [15] it was 98.9%.

For orientation: inhibition means the relative decrease from the control value, in per cent.
